Laboratory results as given in BindingDB's records for doi:10.1021/jm970517u (Merck Research Laboratories, 1998).

Test: Half maximal inhibition of binding of [125I]CCK-8 to Cholecystokinin type B receptor in guinea pig cerebral cortex.

SMILES	IC50 [nM]
CN1C(=O)[C@H](NC(=O)CCc2ccc(N)cc2)N=C(c2ccccc2)c2ccccc21 [3-(4-Amino-phenyl)-N-((R)-1-methyl-2-oxo-5-phenyl-2,3-dihydro-1H-benzo[e][1,4]diazepin-3-yl)-propionamide]	> 1000
CN1C(=O)[C@H](NC(=O)CCc2ccc(Cl)cc2Cl)N=C(c2ccccc2)c2ccccc21 [3-(2,4-Dichloro-phenyl)-N-((R)-1-methyl-2-oxo-5-phenyl-2,3-dihydro-1H-benzo[e][1,4]diazepin-3-yl)-propionamide]	> 1000
O=C(Cc1ccc(C(F)(F)F)cc1C(F)(F)F)N[C@H]1N=C(c2ccccc2)c2ccccc2N(CC(F)(F)F)C1=O [2-(2,4-Bis-trifluoromethyl-phenyl)-N-[(S)-2-oxo-5-phenyl-1-(2,2,2-trifluoro-ethyl)-2,3-dihydro-1H-benzo[e][1,4]diazepin-3-yl]-acetamide]	> 1000
CC(=O)Nc1ccc(CCC(=O)N[C@@H]2N=C(c3ccccc3)c3ccccc3N(C)C2=O)cc1 [3-(4-Acetylamino-phenyl)-N-((R)-1-methyl-2-oxo-5-phenyl-2,3-dihydro-1H-benzo[e][1,4]diazepin-3-yl)-propionamide]	> 1000
O=C(Cc1ccc(C(F)(F)F)cc1C(F)(F)F)N[C@@H]1N=C(c2ccccc2)c2ccccc2N(CC(F)(F)F)C1=O [2-(2,4-Bis-trifluoromethyl-phenyl)-N-[(R)-2-oxo-5-phenyl-1-(2,2,2-trifluoro-ethyl)-2,3-dihydro-1H-benzo[e][1,4]diazepin-3-yl]-acetamide]	> 1000
CN(C)CCN1C(=O)C(NC(=O)CCc2ccc(Cl)cc2Cl)N=C(c2ccccc2)c2ccccc21 (centres undefined) [3-(2,4-Dichloro-phenyl)-N-[1-(2-dimethylamino-ethyl)-2-oxo-5-phenyl-2,3-dihydro-1H-benzo[e][1,4]diazepin-3-yl]-propionamide]	> 1000
CN1C(=O)[C@H](NC(=O)CCc2ccccc2)N=C(c2ccccc2)c2ccccc21 [(R)-N-(1-methyl-2-oxo-5-phenyl-2,3-dihydro-1H-benzo[e][1,4]diazepin-3-yl)-3-phenylpropanamide]	> 1000
CC(C)N1C(=O)[C@H](NC(=O)Cc2cc(Cl)cc(Cl)c2)N=C(c2ccccc2)c2ccccc21 [2-(3,5-Dichloro-phenyl)-N-((R)-1-isopropyl-2-oxo-5-phenyl-2,3-dihydro-1H-benzo[e][1,4]diazepin-3-yl)-acetamide]	> 1000
CN1C(=O)[C@H](NC(=O)Cc2ccccc2)N=C(c2ccccc2)c2ccccc21 [N-((R)-1-Methyl-2-oxo-5-phenyl-2,3-dihydro-1H-benzo[e][1,4]diazepin-3-yl)-2-phenyl-acetamide]	> 1000
CC(C)N1C(=O)[C@H](NC(=O)CCC2CCCCC2)N=C(c2ccccc2)c2ccccc21 [3-Cyclohexyl-N-((R)-1-isopropyl-2-oxo-5-phenyl-2,3-dihydro-1H-benzo[e][1,4]diazepin-3-yl)-propionamide]	> 1000
CN1C(=O)[C@H](NC(=O)CCC2CCCCC2)N=C(c2ccccc2)c2ccccc21 [3-Cyclohexyl-N-((R)-1-methyl-2-oxo-5-phenyl-2,3-dihydro-1H-benzo[e][1,4]diazepin-3-yl)-propionamide]	> 1000
CN1C(=O)[C@H](NC(=O)/C=C/c2ccc(Cl)cc2Cl)N=C(c2ccccc2)c2ccccc21 [(E)-3-(2,4-Dichloro-phenyl)-N-((R)-1-methyl-2-oxo-5-phenyl-2,3-dihydro-1H-benzo[e][1,4]diazepin-3-yl)-acrylamide]	> 1000
CN1C(=O)[C@H](NC(=O)c2ccccc2)N=C(c2ccccc2)c2ccccc21 [N-((R)-1-Methyl-2-oxo-5-phenyl-2,3-dihydro-1H-benzo[e][1,4]diazepin-3-yl)-benzamide]	> 1000
CN1C(=O)[C@H](NC(=O)C(N)Cc2ccccc2)N=C(c2ccccc2)c2ccccc21 (stereo partly drawn) [2-Amino-N-((R)-1-methyl-2-oxo-5-phenyl-2,3-dihydro-1H-benzo[e][1,4]diazepin-3-yl)-3-phenyl-propionamide]	> 1000
